Measured values from patent US20260258032A1, “TYROSINE KINASE 2 INHIBITORS AND USES THEREOF” (BIOGEN MA INC., priority 2022, published 2026).
Counter-ions that a name gives are not always drawn.

Experiments:
[1] = test system: Tyk2 kinase activity on STAT4; assay: pSTAT4 cell assay (MSD, NK92 cells); format: cell-based; settings: compounds 1 hr
In short: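 Read-out: phospho-STAT in NK92 lysates, MSD format, anti-STAT4 antibodies. Cells were serum-starved, given compound for 1 hr (10 μM top, four-fold, 10 points) and IL2-stimulated (30 ng/mL, 15 min). Normalized percent activity vs log concentration, 4-parameter logistic fit gave IC50.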

JH2 domain of human Tyk2 = target: T1, JH2 domain of human Tyk2 (Homo sapiens, UniProt P29597); assay: JH2 biochemical assay (TR-FRET probe displacement); format: binding
T1 construct: 10×His-tagged TYK2 JH2 domain (amino acid 575-876)
T1 sequence (P29597 575-876): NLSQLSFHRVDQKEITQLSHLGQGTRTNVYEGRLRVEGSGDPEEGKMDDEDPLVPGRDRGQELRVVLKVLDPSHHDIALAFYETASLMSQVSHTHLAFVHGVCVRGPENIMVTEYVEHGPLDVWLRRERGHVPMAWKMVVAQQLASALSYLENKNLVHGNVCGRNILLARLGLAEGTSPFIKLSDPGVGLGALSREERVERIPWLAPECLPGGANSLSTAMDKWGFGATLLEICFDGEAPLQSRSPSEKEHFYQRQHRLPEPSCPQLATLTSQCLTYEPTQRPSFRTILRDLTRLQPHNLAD
In short: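 A probe-displacement TR-FRET readout: compounds, tested in 3-fold, 10-point dilutions starting at […], compete with 2 nM tracer for 2 nM His-tagged JH2 (residues 575-876) detected by 0.1 nM Tb-anti-His over 60 min. IC50 comes from 4-parameter fits of normalized 520/495 nm ratios.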

[2] = TR-FRET probe displacement, JH2 domain of human Tyk2

## CC(=O)Nc1cc2c(cn1)C1(CC1)CN2c1cc(C)nc(OC2CC(F)(C#N)C2)n1 (centres unmarked) [Example 368, N-(1′-(2-(3-cyano-3-fluorocyclobutoxy)-6-methylpyrimidin-4-yl)-1′,2′-dihydrospiro[cyclopropane-1,3′-pyrrolo[3,2-c]pyridin]-6′-yl)acetamide]
[1]; stimulated 15 minutes
  IC50: ≥ 1000 nM
JH2 domain of human Tyk2; JH2 biochemical assay
  IC50: 100 to 1000 nM

## CC(=O)Nc1cc2c(cn1)C1(CC1)CN2c1cc(-c2cnn(C)c2F)nc(C(C)(F)F)n1 [Example 310, N-(1′-(2-(1,1-difluoroethyl)-6-(5-fluoro-1-methyl-1H-pyrazol-4-yl)pyrimidin-4-yl)-1′,2′-dihydrospiro[cyclopropane-1,3′-pyrrolo[3,2-c]pyridin]-6′-yl)acetamide]
[1]; stimulated 15 minutes
  IC50: 10 to 100 nM
JH2 domain of human Tyk2; JH2 biochemical assay
  IC50: ≤ 10 nM

## CC(=O)Nc1cc2c(cn1)C1(CC1)CN2c1cc(-c2ccn(C)n2)nc(C(C)(F)F)n1 [Example 241, N-(1′-(2-(1,1-difluoroethyl)-6-(1-methyl-1H-pyrazol-3-yl)pyrimidin-4-yl)-1′,2′-dihydrospiro[cyclopropane-1,3′-pyrrolo[3,2-c]pyridin]-6′-yl)acetamide]
[1]; stimulated 15 minutes
  IC50: 10 to 100 nM
JH2 domain of human Tyk2; JH2 biochemical assay
  IC50: ≤ 10 nM

## CC(=O)Nc1cc2c(cn1)C1(CC1)CN2c1cc(C)cc(N2CCC(O)(C(F)(F)F)C2)n1 (centres unmarked) [Example 186, N-(1′-(6-(3-hydroxy-3-(trifluoromethyl)pyrrolidin-1-yl)-4-methylpyridin-2-yl)-1′,2′-dihydrospiro[cyclopropane-1,3′-pyrrolo[3,2-c]pyridin]-6′-yl)acetamide]
[1]; stimulated 15 minutes
  IC50: ≥ 1000 nM
JH2 domain of human Tyk2; JH2 biochemical assay
  IC50: 100 to 1000 nM

## CC(=O)Nc1cc2c(cn1)C1(CC1)CN2c1cc([C@@H]2C[C@@H]2C#N)nc(C(C)(F)F)n1 (racemic) [Example 73, cis-rac-N-(1′-(6-(2-cyanocyclopropyl)-2-(1,1-difluoroethyl)pyrimidin-4-yl)-1′,2′-dihydrospiro[cyclopropane-1,3′-pyrrolo[3,2-c]pyridin]-6′-yl)acetamide or trans-rac-N-(1′-(6-(2-cyanocyclopropyl)-2-(1,1-difluoroethyl)pyrimidin-4-yl)-1′,2′-dihydrospiro[cyclopropane-1,3′-pyrrolo[3,2-c]pyridin]-6′-yl)acetamide]
[1]; stimulated 15 minutes
  IC50: 10 to 100 nM
JH2 domain of human Tyk2; JH2 biochemical assay
  IC50: ≤ 10 nM

## CC(=O)Nc1cc2c(cn1)C1(CC1)CN2c1cc(C)nc(C(C)(C)F)n1 [Example 312, N-(1′-(2-(2-fluoropropan-2-yl)-6-methylpyrimidin-4-yl)-1′,2′-dihydrospiro[cyclopropane-1,3′-pyrrolo[3,2-c]pyridin]-6′-yl)acetamide]
[1]; stimulated 15 minutes
  IC50: 10 to 100 nM
JH2 domain of human Tyk2; JH2 biochemical assay
  IC50: ≤ 10 nM

## COC1CC(c2cc(N3CC4(CC4)c4cnc(NC(C)=O)cc43)nc(C(C)(F)F)n2)C1 (centres unmarked) [Example 23, N-(1′-(2-(1,1-difluoroethyl)-6-(3-methoxycyclobutyl)pyrimidin-4-yl)-1′,2′-dihydrospiro[cyclopropane-1,3′-pyrrolo[3,2-c]pyridin]-6′-yl)acetamid]
[1]; stimulated 15 minutes
  IC50: 10 to 100 nM
JH2 domain of human Tyk2; JH2 biochemical assay
  IC50: ≤ 10 nM

## CC(=O)Nc1cc2c(cn1)C1(CC1)CN2c1cc(NC2CCC2)nc(C(C)(F)F)n1 [Example 157, N-(1′-(6-(cyclobutylamino)-2-(1,1-difluoroethyl)pyrimidin-4-yl)-1′,2′-dihydrospiro[cyclopropane-1,3′-pyrrolo[3,2-c]pyridin]-6′-yl)acetamide trifluoroacetate]
[1]; stimulated 15 minutes
  IC50: ≤ 10 nM
JH2 domain of human Tyk2; JH2 biochemical assay
  IC50: ≤ 10 nM

## CCc1nc(C)cc(N2CC3(CC3)c3cnc(NC(C)=O)cc32)n1 [Example 64, N-(1′-(2-ethyl-6-methylpyrimidin-4-yl)-1′,2′-dihydrospiro[cyclopropane-1,3′-pyrrolo[3,2-c]pyridin]-6′-yl)acetamide]
[1]; stimulated 15 minutes
  IC50: ≥ 1000 nM
JH2 domain of human Tyk2; JH2 biochemical assay
  IC50: 10 to 100 nM

## CC(=O)Nc1cc2c(cn1)C1(CC1)CN2c1cc(C)nc(C(F)F)n1 [Example 63, N-(1′-(2-(difluoromethyl)-6-methylpyrimidin-4-yl)-1′,2′-dihydrospiro[cyclopropane-1,3′-pyrrolo[3,2-c]pyridin]-6′-yl)acetamide]
[1]; stimulated 15 minutes
  IC50: ≥ 1000 nM
JH2 domain of human Tyk2; JH2 biochemical assay
  IC50: 10 to 100 nM

## CO[C@@H](C)[C@H](C)Nc1cc(N2CC3(CC3)c3cnc(NC(C)=O)cc32)nc(C(C)(F)F)n1 [Example 165, N-(1′-(2-(1,1-difluoroethyl)-6-(((2S,3S)-3-methoxybutan-2-yl)amino)pyrimidin-4-yl)-1′,2′-dihydrospiro[cyclopropane-1,3′-pyrrolo[3,2-c]pyridin]-6′-yl)acetamide trifluoroacetate]
[1]; stimulated 15 minutes
  IC50: 10 to 100 nM
JH2 domain of human Tyk2; JH2 biochemical assay
  IC50: ≤ 10 nM

## CC(=O)Nc1cc2c(cn1)C1(CC1)CN2c1cc(CCC(C)(C)O)nc(C(C)(F)F)n1 [Example 327, N-(1′-(2-(1,1-difluoroethyl)-6-(3-hydroxy-3-methylbutyl)pyrimidin-4-yl)-1′,2′-dihydrospiro[cyclopropane-1,3′-pyrrolo[3,2-c]pyridin]-6′-yl)acetamide]
[1]; stimulated 15 minutes
  IC50: 10 to 100 nM
JH2 domain of human Tyk2; JH2 biochemical assay
  IC50: ≤ 10 nM

## CC(=O)Nc1cc2c(cn1)C1(CC1)CN2c1nc(C(C)(F)F)nc(C)c1F [Example 127, N-(1′-(2-(1,1-difluoroethyl)-5-fluoro-6-methylpyrimidin-4-yl)-1′,2′-dihydrospiro[cyclopropane-1,3′-pyrrolo[3,2-c]pyridin]-6′-yl)acetamide]
[1]; stimulated 15 minutes
  IC50: 100 to 1000 nM
JH2 domain of human Tyk2; JH2 biochemical assay
  IC50: ≤ 10 nM

## COCC(F)(F)c1nc(C)cc(N2CC3(CC3)c3cnc(NC(C)=O)cc32)n1 [Example 401, N-(1′-(2-(1,1-difluoro-2-methoxyethyl)-6-methylpyrimidin-4-yl)-1′,2′-dihydrospiro[cyclopropane-1,3′-pyrrolo[3,2-c]pyridin]-6′-yl)acetamide trifluoroacetate]
[1]; then stimulated 15 minutes
  IC50: ≥ 1000 nM
JH2 domain of human Tyk2; [2]
  IC50: 10 to 100 nM

## CC(=O)Nc1cc2c(cn1)C1(CC1)CN2c1cc(C)cc(N2CCC3(CC2)COC3)n1 [Example 208, N-(1′-(4-methyl-6-(2-oxa-7-azaspiro[3.5]nonan-7-yl)pyridin-2-yl)-1′,2′-dihydrospiro[cyclopropane-1,3′-pyrrolo[3,2-c]pyridin]-6′-yl)acetamide]
[1]; stimulated 15 minutes
  IC50: ≥ 1000 nM
JH2 domain of human Tyk2; JH2 biochemical assay
  IC50: 100 to 1000 nM

## COCCN1CCN(c2nc(C)cc(N3CC4(CC4)c4cnc(NC(C)=O)cc43)n2)CC1 [Example 233, N-(1′-(2-(4-(2-methoxyethyl)piperazin-1-yl)-6-methylpyrimidin-4-yl)-1′,2′-dihydrospiro[cyclopropane-1,3′-pyrrolo[3,2-c]pyridin]-6′-yl)acetamide trifluoroacetate]
[1]; stimulated 15 minutes
  IC50: ≥ 1000 nM
JH2 domain of human Tyk2; JH2 biochemical assay
  IC50: ≥ 1000 nM

## CC(=O)Nc1cc2c(cn1)C1(CC1)CN2c1cc(C)nc(C2CCCOC2)n1 (centres unmarked) [Example 70, N-(1′-(6-methyl-2-(tetrahydro-2H-pyran-3-yl)pyrimidin-4-yl)-1′,2′-dihydrospiro[cyclopropane-1,3′-pyrrolo[3,2-c]pyridin]-6′-yl)acetamide]
[1]; stimulated 15 minutes
  IC50: 100 to 1000 nM
JH2 domain of human Tyk2; JH2 biochemical assay
  IC50: ≤ 10 nM

## CC(=O)Nc1cc2c(cn1)C1(CC1)CN2c1cc(C)cc(C2(O)CCOC2)n1 (centres unmarked) [Example 95, N-(1′-(6-(3-hydroxytetrahydrofuran-3-yl)-4-methylpyridin-2-yl)-1′,2′-dihydrospiro[cyclopropane-1,3′-pyrrolo[3,2-c]pyridin]-6′-yl)acetamide]
[1]; stimulated 15 minutes
  IC50: 100 to 1000 nM
JH2 domain of human Tyk2; JH2 biochemical assay
  IC50: ≤ 10 nM

## CC(=O)Nc1cc2c(cn1)C1(CC1)CN2c1cc(-c2ccncc2F)nc(C(C)(F)F)n1 [Example 381, N-(1′-(2-(1,1-difluoroethyl)-6-(3-fluoropyridin-4-yl)pyrimidin-4-yl)-1′,2′-dihydrospiro[cyclopropane-1,3′-pyrrolo[3,2-c]pyridin]-6′-yl)acetamide trifluoroacetate]
[1]; then stimulated 15 minutes
  IC50: ≤ 10 nM
JH2 domain of human Tyk2; [2]
  IC50: ≤ 10 nM

## CC(=O)Nc1cc2c(cn1)C1(CC1)CN2c1cc(NC(C)C2COC2)nc(C(C)(F)F)n1 (centres unmarked) [Example 175, N-(1′-(2-(1,1-difluoroethyl)-6-((1-(oxetan-3-yl)ethyl)amino)pyrimidin-4-yl)-1′,2′-dihydrospiro[cyclopropane-1,3′-pyrrolo[3,2-c]pyridin]-6′-yl)acetamide]
[1]; stimulated 15 minutes
  IC50: 100 to 1000 nM
JH2 domain of human Tyk2; JH2 biochemical assay
  IC50: ≤ 10 nM

## COCC(F)(F)c1cc(C)cc(N2CC3(CC3)c3cnc(NC(C)=O)cc32)n1 [Example 315, N-(1′-(6-(1,1-difluoro-2-methoxyethyl)-4-methylpyridin-2-yl)-1′,2′-dihydrospiro[cyclopropane-1,3′-pyrrolo[3,2-c]pyridin]-6′-yl)acetamide trifluoroacetate]
[1]; stimulated 15 minutes
  IC50: ≥ 1000 nM
JH2 domain of human Tyk2; JH2 biochemical assay
  IC50: 10 to 100 nM

## CC(=O)Nc1cc2c(cn1)C1(CC1)CN2c1cc(C)cc(OC2CCC(F)C2)n1 (centres unmarked) [Example 353, N-(1′-(6-((3-fluorocyclopentyl)oxy)-4-methylpyridin-2-yl)-1′,2′-dihydrospiro[cyclopropane-1,3′-pyrrolo[3,2-c]pyridin]-6′-yl)acetamide trifluoroacetate]
[1]; stimulated 15 minutes
  IC50: ≥ 1000 nM
JH2 domain of human Tyk2; JH2 biochemical assay
  IC50: 100 to 1000 nM

## COC1CC(c2nc(C)cc(N3CC4(CC4)c4cnc(NC(C)=O)cc43)n2)C1 (centres unmarked) [Example 317, N-(1′-(2-(3-methoxycyclobutyl)-6-methylpyrimidin-4-yl)-1′,2′-dihydrospiro[cyclopropane-1,3′-pyrrolo[3,2-c]pyridin]-6′-yl)acetamide]
[1]; stimulated 15 minutes
  IC50: 100 to 1000 nM
JH2 domain of human Tyk2; JH2 biochemical assay
  IC50: ≤ 10 nM

## CCC(=O)Nc1cc2c(cn1)C1(CC1)CN2c1ccnc(C(C)(F)F)n1 [Example 89, N-(1′-(2-(1,1-difluoroethyl)pyrimidin-4-yl)-1′,2′-dihydrospiro[cyclopropane-1,3′-pyrrolo[3,2-c]pyridin]-6′-yl)propionamide]
[1]; stimulated 15 minutes
  IC50: 100 to 1000 nM
JH2 domain of human Tyk2; JH2 biochemical assay
  IC50: ≤ 10 nM

## CC(=O)Nc1cc2c(cn1)C1(CC1)CN2c1cc(C)nc(OCC2CC2)n1 [Example 369, N-(1′-(2-(cyclopropylmethoxy)-6-methylpyrimidin-4-yl)-1′,2′-dihydrospiro[cyclopropane-1,3′-pyrrolo[3,2-c]pyridin]-6′-yl)acetamide]
[1]; stimulated 15 minutes
  IC50: ≥ 1000 nM
JH2 domain of human Tyk2; JH2 biochemical assay
  IC50: 100 to 1000 nM
